Series [1] concerns α2 adrenoceptor. Conditions: cited from earlier work; for effect on yohimbine's effects: α2 agonists, Ghitza et al, 2005, Le et al, Lee et al, 2004.
For series [2], the system named is reward circuitry. In words: cardiac gated fMRI BOLD imaging during cocaine infusion. The following applies: cocaine HCl 0.6 mg/kg infusion (max 40 mg), vs pre-infusion baseline, count out of 7 cocaine-dependent subjects. The series is classed as in vivo, human. An excerpt: We imaged reward circuitry in humans during cocaine infusion, using cardiac gated fMRI BOLD imaging to compensate for brainstem motion. We further used a clustered volume acquisition with sharpened slice profiles to cluster the acquisition of the brainstem volume and thus reduce the effects of imaging noise on cocaine-induced euphoria and craving. Eleven right-handed men (34±7 years old) with the DSM-IV diagnosis of cocaine dependence were studied. During imaging, subjects underwent a randomized double-blind infusion of either cocaine HCl (0.6 mg/kg up to maximum dose of 40 mg) or saline. Subjects were scanned on an Instascan device (1.5 T General Electric Signa; modified by Advanced NMR Systems, Wilmington, Mass.) using a head coil (General Electric). […] Automated shimming with second order shims was performed to improve Bo field homogeneity. Functional scans utilized cardiac gating with an asymmetric spin echo, T2*-weighted CVA (TR=6 RR, three slices per each of the first two RRs; TE=70; offset=−25 ms; 128×64 matrix; thickness=3.12×3.12 mm, through-plane resolution=7 mm; 200 images/slice). […] Seven matched sets of cocaine and saline infusion scans were interpretable after motion-correction. Statistical maps were constructed using Kolmogorov-Smirnov (KS) statistics and thresholded at the corrected p value for brain regions sampled, p<10-5. […]

For series [3], the system named is cocaine-dependent individuals. The series can be described thus: self-rated subjective responses after intravenous cortisol, cocaine and saline in cocaine dependence. Format: in vivo, human. The method, then:
To assess cocaine/stress cross-sensitization, 12 cocaine-dependent individuals (age: 39.8±3.5 years) were administered cortisol (0.2 and 0.5 mg/kg), along with cocaine (0.2 mg/kg) and saline via intravenous boluses, in a double-blind, counterbalanced fashion. The individualized description of subjective responses were categorized into four components: craving, high, rush, and low, which were self-rated on a computerized continuous scale of 0 (none) to 3 (extreme) each minute for two minutes prior and 20 minutes following each infusion. Cocaine craving was proactively defined with the subject, clinically as an urge to use the drug and operationally in terms of the action the individual wanted to engage in to get cocaine. The ratings for high (well-being, self-confidence, and sociability), rush (perception of elevated heart rate and sweating, along with sensations of ‘speeding’), and low (dysphoric affect distinct from the high experience diminishment) were subjectively defined and not necessarily associated with a behavioral response or with the planning of physical activity. […] Cocaine elevated measures of craving (p<0.001); high (p<0.02); rush (p<10-4); and low (p=0.05). Saline produced no significant ratings changes.

Series [4] deals with reward circuitry. In words: fMRI with cardiac gating during low-dose morphine infusions. As for the experimental part: Normal human reward circuitry was studied during low-dose morphine infusions using fMRI with cardiac gating in an unblinded study. […] Morphine and saline infusions were counter-balanced across subjects, and segregated in separate scan sessions 7 days apart. Four 2 mL infusions were given over 8 minutes, with each infusion lasting 20 seconds. The onset of each infusion was separated by a 2-minute interval. The total morphine dose divided evenly over the 4 infusions was 4 mg/70 kg. Respiratory rate, heart rate, O2 saturation, and end-tidal carbon dioxide concentration in the expired air (ETCO2) were monitored during the experiment in each individual for safety. Subjects were asked to rate their subjective high on a 10-point hedonic rating scale (0=no high; 10=max. high imaginable).

In series [5] the test system is healthy subjects and neuropsychiatric patients. Conditions: cited from earlier work.
The test system of series [6] is NAc and other stress-associated regions. In words: monetary reward task with fMRI in PG subjects given yohimbine. The series is classed as in vivo, human. The following applies: vs PG subjects given saline and normal controls. As for the experimental part: During the gambling paradigm, subjects participated in a game of chance where they actually won or lost money while in the fMRI scanner. Signal changes that anticipate or accompany monetary gains and losses under varying conditions of controlled expectation were evaluated. Specifically, evaluated were: a) an “expectancy phase”, when a promising or unpromising roulette-like spinner (FIG. 4) is presented and b) an “outcome phase” when the arrow lands on one sector of that spinner, and thereby alters the subjects' winnings. It is known that, when applied to healthy controls, this task differentiates the fMRI time courses in the NAc, mPFC and SLEA and in related regions during expectancy vs. outcome phases.
At the start of the game, each subject was given an endowment of $50 and was told that (s)he might lose some or all of this stake, retain it or increase it. Each trial consisted of a “prospect phase”, when a spinner was presented and an “outcome phase” when a sector of the spinner was selected by the arrow and a corresponding amount was added to or subtracted from the subjects' winnings. […] The display was static for the first 0.5 second and then a superimposed arrow began to rotate. […] Only results of the last 18 trials were scored for each run since the initial trial was inserted into the run sequence purely to maintain counterbalancing. […]

The conditions of series [7]: Guthrie et al, 1990; cited from earlier work.
The mark [8] stands for this setting: morphine 4 mg/70 kg total, 5 subjects.

As to `CCS(=O)(=O)N1CCC[C@@H]2CN3CCc4cc(OC)ccc4[C@@H]3C[C@@H]21.Cl` [RS-79948-197], in series [1] (selective α2 adrenoceptor antagonist, literature), the “reproduction of yohimbine's effects” value is given as “replication of these effects”.
With `Clc1cccc(Cl)c1N=C1NCCN1` [clonidine], the “effect on yohimbine's effects” value in series [1] is “blockade of yohimbine's effects”.
Regarding `COC(=O)[C@H]1[C@@H](OC(=O)c2ccccc2)C[C@@H]2CC[C@H]1N2C` [cocaine], the “subjects with focal positive fMRI signal changes in the right NAc, amygdala, and mPFC” value in series [2] is at least 5.
`C[C@]12CCC(=O)C=C1CC[C@@H]1[C@@H]2[C@@H](O)C[C@@]2(C)[C@H]1CC[C@]2(O)C(=O)CO` [cortisol]: the “craving self-rating, time effect” value in series [3] (cortisol 0.2 and 0.5 mg/kg iv bolus, F=3.11, p<0.001) is on record as “significant increases in craving”. The “craving self-rating, dose effect” value in series [3] (cortisol 0.2 vs 0.5 mg/kg iv, F=0.06, p=0.81) is reported as “no dose effect”.
Consider `CC(Oc1c(Cl)cccc1Cl)C1=NCCN1` (stereo not shown) [lofexidine], for which the “effect on yohimbine's effects” value in series [1] is “blockade of yohimbine's effects”.
Take `CN1CC[C@]23c4c5ccc(O)c4O[C@H]2[C@@H](O)C=C[C@H]3[C@H]1C5` [morphine]: the adverse side-effects result in series [4] (morphine 4 mg/70 kg total over 4 infusions, drug naive male subjects) was “No adverse side-effects”. Further, in series [4] (setting [8]), the “fMRI activation in bilateral NAc and mPFC” value is “significant focal activations”; the “fMRI activation in the amygdala” value is given as “subthreshold activation”. Also, the “subjective state (hedonic rating)” value in series [4] (morphine 4 mg/70 kg total, data not shown) is reported as “mild euphoria”. In addition, in series [4] (morphine 4 mg/70 kg total, with cardiac gating), the “fMRI activation in the VT” value is listed as “left VT activation”.
On to `COC(=O)[C@@H]1[C@H]2C[C@H]3c4[nH]c5ccccc5c4CCN3C[C@@H]2CC[C@@H]1O` [yohimbine], for which the tolerability result in series [5] (yohimbine 0.125 mg/kg to 0.4 mg/kg intravenous) is given as “generally well tolerated”. For the same compound, in series [5] (yohimbine clinical trials), the “reported adverse effects in clinical trials” value is “elevated blood pressure and heart rate, psychomotor agitation, irritability, tremor, headaches, skin flushing, dizziness, urinary frequency, nausea, vomiting and perspiration”. Also, in series [5] (yohimbine infusions 0.4 mg/kg, ten PTSD subjects vs matched healthy controls, associated with increased anxiety self-reports), the “PET brain activity in PTSD subjects” value was “deactivations in prefrontal, temporal, parietal, and orbitofrontal cortexes”. For the same compound, the “brain activity in the NAc and other stress-associated regions” value in series [6] is recorded as “significantly elevated levels of brain activity”. The half-life entry in series [7] was “about 45 minutes”.

Values taken from patent publication US20110046120A1, “TREATMENT OF IMPULSE CONTROL DISORDERS” (Mclean Hospital Corporation, priority 2006, published 2011).
